Results taken from US12509444B2, “Compounds and methods for CD73 modulation and indications therefor” (Plexxikon Inc., priority 2019, dated 2025).

Tests used:
[1] = target: T1, Human CD73 (amino acid residues 27-549) (Homo sapiens, UniProt P21589); experiment: CD73 enzymatic assay (luciferase-based indirect assay, CellTiter-Glo); type: biochemical; conditions: 0.4 nM CD73, 150 μM AMP, 1 hour at room temperature
T1 construct: Human CD73 (amino acid residues 27-549); His tag (N); made in house; host or cells: E. coli
T1 sequence (P21589 27-549): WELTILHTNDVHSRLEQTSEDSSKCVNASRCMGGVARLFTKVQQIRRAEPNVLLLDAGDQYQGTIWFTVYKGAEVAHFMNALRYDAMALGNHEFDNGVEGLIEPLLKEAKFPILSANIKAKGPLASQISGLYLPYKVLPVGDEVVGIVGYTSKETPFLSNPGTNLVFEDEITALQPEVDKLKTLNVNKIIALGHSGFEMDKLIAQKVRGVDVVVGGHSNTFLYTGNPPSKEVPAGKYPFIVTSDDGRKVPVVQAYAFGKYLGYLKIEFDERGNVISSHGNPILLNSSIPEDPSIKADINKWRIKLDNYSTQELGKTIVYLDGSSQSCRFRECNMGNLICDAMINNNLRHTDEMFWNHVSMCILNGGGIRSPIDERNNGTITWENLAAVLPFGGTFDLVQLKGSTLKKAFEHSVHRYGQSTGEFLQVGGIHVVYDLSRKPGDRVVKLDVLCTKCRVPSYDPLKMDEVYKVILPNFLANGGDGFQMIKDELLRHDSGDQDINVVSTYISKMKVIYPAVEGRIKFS
Outline: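 Residual AMP inhibits luciferase, so luminescence reports CD73 turnover; read with CellTiter-Glo 2.0 plus 1 μM final ATP, 30 min. Reaction used 0.4 nM N-His CD73 (27-549, E. coli), 150 μM AMP, HEPES pH 7.4 with Tween 20, 1 h at room temperature. IC50 fitted by nonlinear regression.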

[2] = target: T2, human CD73 (Homo sapiens, UniProt P21589); experiment: Inhibitor activity against CD73 in cell based assay (CD73 expressing CHO-K1 cells); conditions: CHO-K1 cells expressing human CD73, 150 μM AMP, 4 hours of incubation; read-out: CHO-K1 CELL VARIANT: CD73 IC50
T2 construct: expressed in transfected cells
T2 sequence (P21589 27-549): T1 sequence (P21589 27-549)
Outline: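 Residual supernatant AMP was quantified via CellTiter-Glo luminescence (1 μM ATP added, 30 min, room temperature) after a 4 h exposure of human CD73-expressing CHO-K1 cells to 150 μM AMP plus compound, top final 10 μM, 8 points. IC50 came from nonlinear regression of percent inhibition.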

IC50 [1]	IC50 [2]	SMILES
0.001 to 10 µM	0.001 to 10 µM	N#CC1(NC(=O)O[C@@H]2CCN(c3cnn(CCO)c(=O)c3Cl)C2)CCCC1 [P-0476, (R)-1-(5-chloro-1-(2-hydroxyethyl)-6-oxo-1,6-dihydropyridazin-4-yl)pyrrolidin-3-yl (1-cyanocyclopentyl)carbamate]
0.001 to 10 µM	0.001 to 10 µM	O=C(N[C@@H]1CCC[C@@H]1C(F)(F)F)O[C@@H]1CCN(c2cnn(CCO)c(=O)c2Cl)C1 [P-0478, (R)-1-(5-chloro-1-(2-hydroxyethyl)-6-oxo-1,6-dihydropyridazin-4-yl)pyrrolidin-3-yl ((1R,2S)-2-(trifluoromethyl)cyclopentyl) carbamate]
0.001 to 10 µM	0.001 to 10 µM	O=C(NC1(C2CC2)CC1)O[C@@H]1CCN(c2cnn(CCO)c(=O)c2Cl)C1 [P-0480, (R)-1-(5-chloro-1-(2-hydroxyethyl)-6-oxo-1,6-dihydropyridazin-4-yl)pyrrolidin-3-yl [1,1′-bi(cyclopropan)]-1-ylcarbamate]
0.001 to 10 µM	0.001 to 10 µM	N#Cc1c(N2C[C@H](OC(=O)NC3CCC(F)(F)CC3)[C@@H](F)C2)cn[nH]c1=O [P-0483, (3S,4S)-1-(5-cyano-6-oxo-1,6-dihydropyridazin-4-yl)-4-fluoropyrrolidin-3-yl (4,4-difluorocyclohexyl)carbamate]
0.001 to 10 µM	0.001 to 10 µM	N#Cc1c(N2C[C@H](OC(=O)NC3CCCC3)[C@@H](F)C2)cn[nH]c1=O [P-0484, (3S,4S)-1-(5-cyano-6-oxo-1,6-dihydropyridazin-4-yl)-4-fluoropyrrolidin-3-yl cyclopentylcarbamate]
0.001 to 10 µM	0.001 to 10 µM	N#Cc1c(N2C[C@H](OC(=O)NC3CCC(F)(F)CC3)[C@@H](F)C2)cnn(CCO)c1=O [P-0485, (3S,4S)-1-(5-cyano-1-(2-hydroxyethyl)-6-oxo-1,6-dihydropyridazin-4-yl)-4-fluoropyrrolidin-3-yl (4,4-difluorocyclohexyl)carbamate]
0.001 to 10 µM	0.001 to 10 µM	O=C(N[C@H]1CC[C@@H](NC2CC3CCC2C3)CC1)O[C@@H]1CCN(c2cn[nH]c(=O)c2Cl)C1 (stereo partly drawn) [P-0488, (R)-1-(5-chloro-6-oxo-1,6-dihydropyridazin-4-yl)pyrrolidin-3-yl ((1R,4S)-4-(((1S,4R)-bicyclo[2.2.1]heptan-2-yl)amino)cyclohexyl)carbamate]
0.001 to 10 µM	0.001 to 10 µM	O=C(NC1CCN(C(=O)Nc2cc(F)ccc2F)CC1)O[C@@H]1CCN(c2cn[nH]c(=O)c2Cl)C1 [P-0491, (R)-1-(5-chloro-6-oxo-1,6-dihydropyridazin-4-yl)pyrrolidin-3-yl (1-((2,5-difluorophenyl)carbamoyl)piperidin-4-yl)carbamate]
0.001 to 10 µM	0.001 to 10 µM	O=C(NC1CCN(C(=O)Nc2ccccc2Cl)CC1)O[C@@H]1CCN(c2cn[nH]c(=O)c2Cl)C1 [P-0494, (R)-1-(5-chloro-6-oxo-1,6-dihydropyridazin-4-yl)pyrrolidin-3-yl (1-((2-chlorophenyl)carbamoyl)piperidin-4-yl)carbamate]

The remaining lines, values behind:

SMILES	IC50 [1]	IC50 [2]
O=C(NC1CCCC1)O[C@H]1CN(c2cnn(CCO)c(=O)c2Cl)C[C@@H]1F [P-0475, (3S,4S)-1-(5-chloro-1-(2-hydroxyethyl)-6-oxo-1,6-dihydropyridazin-4-yl)-4-fluoropyrrolidin-3-yl cyclopentylcarbamate]	0.001 to 10 µM	0.001 to 10 µM
O=C(N[C@@H]1CCC[C@H]1O)O[C@@H]1CCN(c2cnn(CCO)c(=O)c2Cl)C1 [P-0477, (R)-1-(5-chloro-1-(2-hydroxyethyl)-6-oxo-1,6-dihydropyridazin-4-yl)pyrrolidin-3-yl ((1R,2R)-2-hydroxycyclopentyl)carbamate]	0.001 to 10 µM	0.001 to 10 µM
O=C(NC1CCCC(F)(F)C1)O[C@@H]1CCN(c2cnn(CCO)c(=O)c2Cl)C1 (stereo partly drawn) [P-0479, (R)-1-(5-chloro-1-(2-hydroxyethyl)-6-oxo-1,6-dihydropyridazin-4-yl)pyrrolidin-3-yl (3,3-difluorocyclohexyl)carbamate]	0.001 to 10 µM	0.001 to 10 µM
O=C(N[C@@H]1CCC[C@@H]1O)O[C@@H]1CCN(c2cn[nH]c(=O)c2Cl)C1 [P-0481, (R)-1-(5-chloro-6-oxo-1,6-dihydropyridazin-4-yl)pyrrolidin-3-yl ((1R,2S)-2-hydroxycyclopentyl)carbamate]	0.001 to 10 µM	0.001 to 10 µM
O=C(N[C@H]1CC[C@@H](NC2CCC(F)(F)CC2)CC1)O[C@@H]1CCN(c2cn[nH]c(=O)c2Cl)C1 [P-0482, (R)-1-(5-chloro-6-oxo-1,6-dihydropyridazin-4-yl)pyrrolidin-3-yl ((1s,4S)-4-((4,4-difluorocyclohexyl)amino)cyclohexyl)carbamate]	0.001 to 10 µM	0.001 to 10 µM
N#Cc1c(N2C[C@H](OC(=O)NC3CCCC3)[C@@H](F)C2)cnn(CCO)c1=O [P-0486, (3S,4S)-1-(5-cyano-1-(2-hydroxyethyl)-6-oxo-1,6-dihydropyridazin-4-yl)-4-fluoropyrrolidin-3-yl cyclopentylcarbamate]	0.001 to 10 µM	0.001 to 10 µM
O=C(N[C@H]1CC[C@@H](NC2CCOCC2)CC1)O[C@@H]1CCN(c2cn[nH]c(=O)c2Cl)C1 [P-0487, (R)-1-(5-chloro-6-oxo-1,6-dihydropyridazin-4-yl)pyrrolidin-3-yl ((1s,4S)-4-((tetrahydro-2H-pyran-4-yl)amino)cyclohexyl)carbamate]	0.001 to 10 µM	0.001 to 10 µM
O=C(N[C@H]1CC[C@@H](NC2CCS(=O)(=O)CC2)CC1)O[C@@H]1CCN(c2cn[nH]c(=O)c2Cl)C1 [P-0489, (R)-1-(5-chloro-6-oxo-1,6-dihydropyridazin-4-yl)pyrrolidin-3-yl ((1s,4S)-4-((1,1-dioxidotetrahydro-2H-thiopyran-4-yl)amino)cyclohexyl)carbamate]	0.001 to 10 µM	0.001 to 10 µM
O=C(NC1CCN(C(=O)Nc2ccc(F)cc2F)CC1)O[C@@H]1CCN(c2cn[nH]c(=O)c2Cl)C1 [P-0490, (R)-1-(5-chloro-6-oxo-1,6-dihydropyridazin-4-yl)pyrrolidin-3-yl (1-((2,4-difluorophenyl)carbamoyl)piperidin-4-yl)carbamate]	0.001 to 10 µM	0.001 to 10 µM
O=C(NC1CCN(C(=O)Nc2ccc(OC(F)(F)F)cc2)CC1)O[C@@H]1CCN(c2cn[nH]c(=O)c2Cl)C1 [P-0492, (R)-1-(5-chloro-6-oxo-1,6-dihydropyridazin-4-yl)pyrrolidin-3-yl (1-((4-(trifluoromethoxy)phenyl)carbamoyl)piperidin-4-yl) carbamate]	0.001 to 10 µM	0.001 to 10 µM
O=C(NC1CCN(C(=O)Nc2cccc(OC(F)F)c2)CC1)O[C@@H]1CCN(c2cn[nH]c(=O)c2Cl)C1 [P-0493, (R)-1-(5-chloro-6-oxo-1,6-dihydropyridazin-4-yl)pyrrolidin-3-yl (1-((3-(difluoromethoxy)phenyl)carbamoyl)piperidin-4-yl) carbamate]	0.001 to 10 µM	0.001 to 10 µM
O=C(NC1CCN(C(=O)Nc2cc(Cl)cc(Cl)c2)CC1)O[C@@H]1CCN(c2cn[nH]c(=O)c2Cl)C1 [P-0495, (R)-1-(5-chloro-6-oxo-1,6-dihydropyridazin-4-yl)pyrrolidin-3-yl (1-((3,5-dichlorophenyl)carbamoyl)piperidin-4-yl)carbamate]	0.001 to 10 µM	0.001 to 10 µM
